This experiment relates to PC12 cells. Briefly: Neurite sprouting in PC12 cells. The format is cell-based. The settings on record: 10^-6 M, serum-free vehicle with 50 ng/ml NGF, third day; controls 21.5.
Experimental: The cells are then washed three times in a serum-free vehicle. […] This effect is evaluated by counting the number of cells with neurites at the third day.
For `CCCCCCCCCCCCC/C=C/[C@@H](OC(C)=O)[C@H](CO[C@@H]1O[C@H](COC(C)=O)[C@@H](O[C@@H]2O[C@H](COC(C)=O)[C@H](O[C@@H]3O[C@H](COC(C)=O)[C@H](OC(C)=O)[C@H](O[C@@H]4O[C@H](COC(C)=O)[C@H](OC(C)=O)[C@H](OC(C)=O)[C@H]4OC(C)=O)[C@H]3NC(C)=O)[C@H](O[C@]3(C(N)=O)C[C@H](OC(C)=O)[C@@H](NC(C)=O)[C@H]([C@H](OC(C)=O)[C@@H](COC(C)=O)OC(C)=O)O3)[C@H]2OC(C)=O)[C@H](OC(C)=O)[C@H]1OC(C)=O)NC(=O)CCCCCCCCCCCCCCCCC` [Amide of peracetylated GM1, Peracetylated derivative of the amide of the ganglioside GM1], the “% of the no. of cells with neurites at 3rd day” value (“% of the no. of cells” for short) was 31.4%. `CCCCCCCCCCCCC/C=C/[C@@H](O)[C@H](CO[C@@H]1O[C@H](CO)[C@@H](O[C@@H]2O[C@H](CO)[C@H](O[C@@H]3O[C@H](CO)[C@H](O)[C@H](O[C@@H]4O[C@H](CO)[C@H](O)[C@H](O)[C@H]4O)[C@H]3NC(C)=O)[C@H](O[C@]3(C(=O)NCCCCCCO)C[C@H](O)[C@@H](NC(C)=O)[C@H]([C@H](O)[C@H](O)CO)O3)[C@H]2O)[C@H](O)[C@H]1O)NC(=O)CCCCCCCCCCCCCCCCC` [6-hydroxyhexyl-1-amide of GM1, 6-hydroxyhexyl-1-amide of the ganglioside GM1]: the “% of the no. of cells” value is 36.4%.

Regarding `CCCCCCCCCCCCC/C=C/[C@@H](O)[C@H](CO[C@@H]1O[C@H](CO)[C@@H](O[C@@H]2O[C@H](CO)[C@H](O[C@@H]3O[C@H](CO)[C@H](O)[C@H](O[C@@H]4O[C@H](CO)[C@H](O)[C@H](O)[C@H]4O)[C@H]3NC(C)=O)[C@H](O[C@]3(C(=O)OCc4ccccc4)C[C@H](O)[C@@H](NC(C)=O)[C@H]([C@H](O)[C@H](O)CO)O3)[C@H]2O)[C@H](O)[C@H]1O)NC(=O)CCCCCCCCCCCCCCCCC` [Benzylic ester of GM1, Benzyl ester of the ganglioside GM1], the “% of the no. of cells” value amounted to 28.3%.

Regarding `C=CCOC(=O)[C@@]1(O[C@@H]2[C@@H](O)[C@H](O[C@H]3[C@H](O)[C@@H](O)[C@H](OC[C@H](NC(=O)CCCCCCCCCCCCCCCCC)[C@H](O)/C=C/CCCCCCCCCCCCC)O[C@@H]3CO)O[C@H](CO)[C@@H]2O[C@@H]2O[C@H](CO)[C@H](O)[C@H](O[C@@H]3O[C@H](CO)[C@H](O)[C@H](O)[C@H]3O)[C@H]2NC(C)=O)C[C@H](O)[C@@H](NC(C)=O)[C@H]([C@H](O)[C@H](O)CO)O1` [Allylic ester of GM1, Allyl ester of the ganglioside GM1], the “% of the no. of cells” value is 31.5%. For `CCCCCCCCCCCCC/C=C/[C@@H](O)[C@H](CO[C@@H]1O[C@H](CO)[C@@H](O[C@@H]2O[C@H](CO)[C@H](O[C@@H]3O[C@H](CO)[C@H](O)[C@H](O[C@@H]4O[C@H](CO)[C@H](O)[C@H](O)[C@H]4O)[C@H]3NC(C)=O)[C@H](O[C@]3(C(=O)NCC)C[C@H](O)[C@@H](NC(C)=O)[C@H]([C@H](O)[C@H](O)CO)O3)[C@H]2O)[C@H](O)[C@H]1O)NC(=O)CCCCCCCCCCCCCCCCC` [Ethylamide of GM1, Ethylamide of the ganglioside GM1] the value was 32.2%. For `CCCCCCCCCCCCC/C=C/[C@@H](O)[C@H](CO[C@@H]1O[C@H](CO)[C@@H](O[C@@H]2O[C@H](CO)[C@H](O[C@@H]3O[C@H](CO)[C@H](O)[C@H](O[C@@H]4O[C@H](CO)[C@H](O)[C@H](O)[C@H]4O)[C@H]3NC(C)=O)[C@H](O[C@]3(C(=O)OC(C)(C)C)C[C@H](O)[C@@H](NC(C)=O)[C@H]([C@H](O)[C@H](O)CO)O3)[C@H]2O)[C@H](O)[C@H]1O)NC(=O)CCCCCCCCCCCCCCCCC` [Tertiarbutylic ester of GM1, Tertiary butyl ester of the ganglioside GM1] the value was 32.3%; for `CCCCCCCCCCCCC/C=C/[C@@H](O)[C@H](CO[C@@H]1O[C@H](CO)[C@@H](O[C@@H]2O[C@H](CO)[C@H](O[C@@H]3O[C@H](CO)[C@H](O)[C@H](O[C@@H]4O[C@H](CO)[C@H](O)[C@H](O)[C@H]4O)[C@H]3NC(C)=O)[C@H](O[C@]3(C(=O)NCCN(C)C)C[C@H](O)[C@@H](NC(C)=O)[C@H]([C@H](O)[C@H](O)CO)O3)[C@H]2O)[C@H](O)[C@H]1O)NC(=O)CCCCCCCCCCCCCCCCC` [Dimethylaminoethylamide of GM1, Dimethylaminoethylamide of the ganglioside GM1], 34.8%; for `CCCCCCCCCCCCC/C=C/[C@@H](O)[C@H](CO[C@@H]1O[C@H](CO)[C@@H](O[C@@H]2O[C@H](CO)[C@H](O[C@@H]3O[C@H](CO)[C@H](O)[C@H](O[C@@H]4O[C@H](CO)[C@H](O)[C@H](O)[C@H]4O)[C@H]3NC(C)=O)[C@H](O[C@]3(C(=O)OCC(=O)OCC)C[C@H](O)[C@@H](NC(C)=O)[C@H]([C@H](O)[C@H](O)CO)O3)[C@H]2O)[C@H](O)[C@H]1O)NC(=O)CCCCCCCCCCCCCCCCC` [Etoxycarbonylmethylic ester of GM1, Ethoxycarbonylmethyl ester of the ganglioside GM1], 27.3%. The same measure for `CCCCCCCCCCCCC/C=C/[C@@H](O)[C@H](CO[C@@H]1O[C@H](CO)[C@@H](O[C@@H]2O[C@H](CO)[C@H](O[C@@H]3O[C@H](CO)[C@H](O)[C@H](O[C@@H]4O[C@H](CO)[C@H](O)[C@H](O)[C@H]4O)[C@H]3NC(C)=O)[C@H](O[C@]3(C(=O)OCC)C[C@H](O)[C@@H](NC(C)=O)[C@H]([C@H](O)[C@H](O)CO)O3)[C@H]2O)[C@H](O)[C@H]1O)NC(=O)CCCCCCCCCCCCCCCCC` [Ethylic ester of GM1, Ethyl ester of the ganglioside GM1]: 37.1%. Consider `CCCCCCCCCCCCC/C=C/[C@@H](O)[C@H](CO[C@@H]1O[C@H](CO)[C@@H](O[C@@H]2O[C@H](CO)[C@H](O[C@@H]3O[C@H](CO)[C@H](O)[C@H](O[C@@H]4O[C@H](CO)[C@H](O)[C@H](O)[C@H]4O)[C@H]3NC(C)=O)[C@H](O[C@]3(C(=O)NCCO)C[C@H](O)[C@@H](NC(C)=O)[C@H]([C@H](O)[C@H](O)CO)O3)[C@H]2O)[C@H](O)[C@H]1O)NC(=O)CCCCCCCCCCCCCCCCC` [Ethanolamide of GM1, Ethanolamide of the ganglioside GM1], for which the “% of the no. of cells” value stood at 41.2%. Consider `CCCCCCCCCCCCC/C=C/[C@@H](O)[C@H](CO[C@@H]1O[C@H](CO)[C@@H](O[C@@H]2O[C@H](CO)[C@H](O[C@@H]3O[C@H](CO)[C@H](O)[C@H](O[C@@H]4O[C@H](CO)[C@H](O)[C@H](O)[C@H]4O)[C@H]3NC(C)=O)[C@H](O[C@]3(C(=O)N(C)CC)C[C@H](O)[C@@H](NC(C)=O)[C@H]([C@H](O)[C@H](O)CO)O3)[C@H]2O)[C@H](O)[C@H]1O)NC(=O)CCCCCCCCCCCCCCCCC` [Ethylmethylamide of GM1, Ethylmethylamide of the ganglioside GM1], for which the “% of the no. of cells” value is 35.3%. For `CCCCCCCCCCCCC/C=C/[C@@H](O)[C@H](CO[C@@H]1O[C@H](CO)[C@@H](O[C@@H]2O[C@H](CO)[C@H](O[C@@H]3O[C@H](CO)[C@H](O)[C@H](O[C@@H]4O[C@H](CO)[C@H](O)[C@H](O)[C@H]4O)[C@H]3NC(C)=O)[C@H](O[C@]3(C(=O)NCc4ccccc4)C[C@H](O)[C@@H](NC(C)=O)[C@H]([C@H](O)[C@H](O)CO)O3)[C@H]2O)[C@H](O)[C@H]1O)NC(=O)CCCCCCCCCCCCCCCCC` [Benzylamide of GM1, Benzylamide of the ganglioside GM1] the value was 30.8%; for `CCCCCCCCCCCCC/C=C/[C@@H](OC(C)=O)[C@H](CO[C@@H]1O[C@H](COC(C)=O)[C@@H](O[C@@H]2O[C@H](COC(C)=O)[C@H](O[C@@H]3O[C@H](COC(C)=O)[C@H](OC(C)=O)[C@H](O[C@@H]4O[C@H](COC(C)=O)[C@H](OC(C)=O)[C@H](OC(C)=O)[C@H]4OC(C)=O)[C@H]3NC(C)=O)[C@H](O[C@]3(C(=O)O)C[C@H](OC(C)=O)[C@@H](NC(C)=O)[C@H]([C@H](OC(C)=O)[C@@H](COC(C)=O)OC(C)=O)O3)[C@H]2OC(C)=O)[C@H](OC(C)=O)[C@H]1OC(C)=O)NC(=O)CCCCCCCCCCCCCCCCC` [Peracetylated GM1, Peracetylated derivative of the ganglioside GM1], 30.2%; for `CCCCCCCCCCCCC/C=C/[C@@H](O)[C@H](CO[C@@H]1O[C@H](CO)[C@@H](O[C@@H]2O[C@H](CO)[C@H](O[C@@H]3O[C@H](CO)[C@H](O)[C@H](O[C@@H]4O[C@H](CO)[C@H](O)[C@H](O)[C@H]4O)[C@H]3NC(C)=O)[C@H](O[C@]3(C(=O)N(CC)CC)C[C@H](O)[C@@H](NC(C)=O)[C@H]([C@H](O)[C@H](O)CO)O3)[C@H]2O)[C@H](O)[C@H]1O)NC(=O)CCCCCCCCCCCCCCCCC` [Diethylamide of GM1, Diethylamide of the ganglioside GM1], 28.5%. `CCCCCCCCCCCCC/C=C/[C@@H](O)[C@H](CO[C@@H]1O[C@H](CO)[C@@H](O[C@@H]2O[C@H](CO)[C@H](O[C@@H]3O[C@H](CO)[C@H](O)[C@H](O[C@@H]4O[C@H](CO)[C@H](O)[C@H](O)[C@H]4O)[C@H]3NC(C)=O)[C@H](O[C@]3(C(=O)NC(C)C)C[C@H](O)[C@@H](NC(C)=O)[C@H]([C@H](O)[C@H](O)CO)O3)[C@H]2O)[C@H](O)[C@H]1O)NC(=O)CCCCCCCCCCCCCCCCC` [Isopropylamide of GM1, Isopropylamide of the ganglioside GM1]: the “% of the no. of cells” value was determined as 31.4%. For `CCCCCCCCCCCCC/C=C/[C@@H](OC(C)=O)[C@H](CO[C@@H]1O[C@H](COC(C)=O)[C@@H](O[C@@H]2O[C@H](COC(C)=O)[C@H](O[C@@H]3O[C@H](COC(C)=O)[C@H](OC(C)=O)[C@H](O[C@@H]4O[C@H](COC(C)=O)[C@H](OC(C)=O)[C@H](OC(C)=O)[C@H]4OC(C)=O)[C@H]3NC(C)=O)[C@H](O[C@]3(C(=O)OC)C[C@H](OC(C)=O)[C@@H](NC(C)=O)[C@H]([C@H](OC(C)=O)[C@@H](COC(C)=O)OC(C)=O)O3)[C@H]2OC(C)=O)[C@H](OC(C)=O)[C@H]1OC(C)=O)NC(=O)CCCCCCCCCCCCCCCCC` [Methylic ester of peracetylated GM1, Peracetylated derivative of the methyl ester of the ganglioside GM1], the “% of the no. of cells” value worked out at 29.4%.

These data come from patent publication US4713374A, “Ganglioside derivatives” (priority 1984, dated 1987).
